According to patent publication US20260183295A1, “METHODS AND COMPOSITIONS FOR TREATING CANCER” (Onconova Therapeutics, Inc., priority 2022, published 2026):

What was measured:
Assay type in all cases: cell-based
[1] = system: HCC-1937; assay: Cell viability after 72 hours treatment; conditions: HCC-1937 (TNBC)
Procedure: (§1) The effects on the different treatment conditions on BUB 1 levels and PARP cleavage were also assessed. For both MNA-MB-231 cells, Compound 1 alone or with HCQ or SBI decreased BUB1 levels and cleaved PARP with […] decreases in cell viability observed for all treatments except Compound 1+SBI in MMA-MB-231 cells. The effects of Compound 1 with or without autophagy inhibitors was less pronounced in HCC-1937 cells.

[2] = system: MDA-MB-468; assay: Cell viability after 72 hours treatment; conditions: MDA-MB-468 (TNBC)
Procedure: as §1

[3] = system: Hs578T spheroids; assay: CellTiter Glo 3D spheroid viability; conditions: 48 hours; Compound 1, Comparator 1, Comparator 2 5 μM; Comparator 4 10 μM
Procedure: Viability of the spheroids was assessed using CellTiter Glo 3D.

[4] = system: Caspase 3/7; assay: Caspase 3/7 Glo assay, MDA-MB-231 cells, 24 hours
Procedure: To determine how Compound 1 induces cell death, Caspase 3/7 activity was measured using the Caspase 3/7 Glo assay.
The effect of zVAD-FMK treatment on Caspase 3/7 activity was assessed.

[5] = system: Caspase 3/7; assay: Caspase 3/7 Glo assay with or without bafilomycin A1, MDA-MB-231 cells, 2 days; conditions: 5 μM
Text: FIGS. 34 and 35 show Caspase 3/7 activity as measured by the Caspase 3/7 Glo assay. […] The effect was enhanced by co-treatment with bafilomycin A1 cotreatment.

[6] = system: MDA-MB-231 cells; assay: MTT assay, 24 hours; conditions: zVAD-FMK 20 μM (FIG. 25)
[7] = system: MDA-MB-231 cells; assay: Annexin V/PI staining followed by FACS, 24 hours; conditions: for cell death (Annexin V/PI): Compound 1, Comparator 1, 2 5 μM, Comparator 4 10 μM; for effect of zVAD-FMK on cell death, Annexin V/PI staining: zVAD-FMK 20 μM (FIG. 24)
Procedure: To determine the effect of the different treatment conditions on cell death, Annexin V/PI staining was performed.

[8] = system: T-47D, HCC-1937, HS-578T, BT-474, MDA-MB-468, and MD-MB-453 cell lines; assay: MTT cell viability of breast cancer cell line panel versus comparators, 48 hrs (FIG. 17); conditions: Comparator 4 10 μM, Comparator 1 and 2 5 μM, Compound 1 2.5, 5.0, 10 μM
[9] = Compound 1, Comparator 1, 2 5 μM, Comparator 4 10 μM (FIG. 22)
[10] = without zVAD-FMK, relative to DMSO (FIG. 26)

CC(=O)c1c(C)c2cnc(Nc3ccc(N4CCNCC4)cn3)nc2n(C2CCCC2)c1=O [Comparator 1, palbociclib]
72 h-cell viability decrease [1]: 15% | 72 h-cell viability decrease [2]: 10% | decrease in organoid viability compared to DMSO [3]: no effect | Caspase 3/7 activity [4, 9]: no effect | Caspase 3/7 activity, compound alone [5]: no effect

CN(C)C(=O)c1cc2cnc(Nc3ccc(N4CCNCC4)cn3)nc2n1C1CCCC1 [Comparator 2, ribociclib]
decrease in organoid viability compared to DMSO [3]: no effect | effect of zVAD-FMK on cell death, MTT assay [6]: similarly unaffected | Caspase 3/7 activity [4, 9]: no effect | Caspase 3/7 activity [4, 10]: not increased | cell death (Annexin V/PI) [7]: neither Comparator 1 nor Comparator 2 treatment induced cell death | effect of zVAD-FMK on cell death, Annexin V/PI staining [7]: similarly unaffected

CCN1CCN(Cc2ccc(Nc3ncc(F)c(-c4cc(F)c5nc(C)n(C(C)C)c5c4)n3)nc2)CC1 [Comparator 3, abemaciclib]
72 h-cell viability decrease [1]: 10% | 72 h-cell viability decrease [2]: 50%

CC(C)C[C@H](NC(=O)[C@H](Cc1ccccc1)NC(=O)c1cnccn1)B(O)O [Comparator 4, bortezomib]
cell death (MTT), comparison of treatments [8]: induced cell death to the greatest extent | decrease in organoid viability compared to DMSO [3]: significant cell death | effect of zVAD-FMK on cell death, MTT assay [6]: partially blocked | Caspase 3/7 activity [4, 9]: greatest increase | Caspase 3/7 activity [4, 10]: large increase | effect of zVAD-FMK on induced Caspase 3/7 activity ([4]; zVAD-FMK 20 μM (FIG. 26)): completely inhibited | cell death (Annexin V/PI) [7]: ~55% | effect of zVAD-FMK on cell death, Annexin V/PI staining [7]: partially blocked
